Consider 19 molecules from patent US4874777A, “Leukotriene antagonists” (Eli Lilly and Company, priority 1987, dated 1989).

This experiment deals with LTD4 evoked ileal contractions. Nature of the experiment: LTD4 antagonism in isolated guinea pig ileum (inhibition of LTD4 evoked ileal contractions). Particulars: Cavia porcellus; for IC50: 50% inhibition of LTD4 responses, interpolated by linear regression from 2-4 concentrations; for inhibition at 0.01 µM: compound concentration 1 × 10^-8 M; for inhibition at 0.01 µM / inhibition at 0.03 µM / inhibition at 0.3 µM / inhibition at 0.1 µM / inhibition at 0.003 µM: read-out: Percent inhibition of LTD4 evoked ileal contractions; for inhibition at 0.03 µM: compound concentration 3 × 10^-8 M; for inhibition at 0.3 µM: compound concentration 3 × 10^-7 M; for inhibition at 0.1 µM: compound concentration 1 × 10^-7 M; for inhibition at 0.003 µM: compound concentration 3 × 10^-9 M. The experiment is classed as cell-based, guinea pig (male, Hartley). The protocol:
Male, Hartley guinea pigs weighing 200-450 grams were killed by decapitation. A section of terminal ileum was removed, the lumen cleaned, and the tissue divided into 2.5 cm. segments. The ilea were mounted in 10 ml. tissue baths containing Krebs-bicarbonate solution of the following composition in mmoles/liter: KCl, 4.6; CaCl2 ·H2 O, 1.2; KH2 PO4, 1.2; MgSO4 ·7H2 O, 1.2; NaCl, 118.2; NaHCO3, 24.8; and dextrose, 10.0. The bath fluid was maintained at 37° C. and aerated with 95 percent oxygen and 5 percent CO2. In addition, the buffer contained 1×10^-6 M atropine to reduce ileal spontaneous activity. Isometric measurements were made with a Grass FTO3C force-displacement transducer and recorded on a Gras polygraph as change in grams of force. A passive force of 0.5 g. was applied to the tissues. After an appropriate equilibration period, single submaximal control responses to pure LTD4 were obtained. Following a five minute exposure of the ileum to an experimental drug, the control concentration of LTD4 was added to the tissue bath. The response of the ileum to LTD4 in the presence of the drug was compared to the response in the absence of the drug. Various degrees of LTD4 antagonism were obtained using 2-4 different concentrations of an experimental compound on a single ileum.

For the molecule `CCCc1c(COc2ccc(C(=O)C(C)Cc3nnn[nH]3)cc2)ccc(C(C)=O)c1O` (stereo not shown) [Example 14, 1-{4-[(4-Acetyl-3-hydroxy-2-propylphenyl)methoxy]phenyl}-2-methyl-3-(1H-tetrazol-5-yl)-1-propanone], the midpoint of inhibition, the IC50, lay at 20.4 nM; the inhibition at 0.01 µM was found to be 35%; the inhibition at 0.03 µM was 58%.

Take `CCCc1c(COc2ccc(C(=O)C(C)(C)Cc3nnn[nH]3)cc2)ccc(C(C)=O)c1O` [Example 12, 1-{4-[(4-Acetyl-3-hydroxy-2-propylphenyl)methoxy]phenyl}-2,2-dimethyl-3-(1H-tetrazol-5-yl)-1-propanone]: 51.3 nM corresponded to half-maximal inhibition (IC50), the inhibition at 0.3 µM came out at 60% and the inhibition at 0.03 µM turned out to be 41%.

For `CCCc1c(COc2ccc(C(=O)CCCc3nnn[nH]3)c(O)c2)ccc(C(C)=O)c1O` [Example 13, 1-{4-[(4-Acetyl-3-hydroxy-2-propylphenyl)methoxy]-2-hydroxyphenyl}-4-(1H-tetrazol-5-yl)-1-butanone], half-maximal inhibition (IC50) was put at 24.5 nM, the inhibition at 0.01 µM amounted to 28% and the inhibition at 0.3 µM turned out to be 82%.

As for `CCCc1c(COc2ccc(C(=O)CCCC(=O)O)cc2)ccc(C(C)=O)c1O` [Example 7, 4-[(4-Acetyl-3-hydroxy-2-propylphenyl)methoxy]-δ-oxobenzenepentanoicacid], the IC50 is 37.2 nM, the inhibition at 0.1 µM is 68% and the inhibition at 0.01 µM was 17%.

With `CCCc1c(COc2ccc(C(=O)CC(C)(C)Cc3nnn[nH]3)cc2)ccc(C(C)=O)c1O` [Example 15, 1-{4-[(4-Acetyl-3-hydroxy-2-propylphenyl)methoxy]phenyl}-3,3-dimethyl-4-(1H-tetrazol-5-yl)-1-butanone], 3.24 nM corresponded to half-maximal inhibition (IC50), the inhibition at 0.03 µM was 91% and the inhibition at 0.003 µM was 50%.

On to `CCc1c(COc2ccc(C(=O)CC(C)(C)Cc3nnn[nH]3)cc2)ccc(C(C)=O)c1O` [Example 16, 1-{4-[(4-Acetyl-3-hydroxy-2-ethylphenyl)methoxy]phenyl}-3,3-dimethyl-4-(1H-tetrazol-5-yl)-1-butanone], for which the IC50 is 4.79 nM, the inhibition at 0.1 µM was 95%, the inhibition at 0.01 µM was found to be 63% and the inhibition at 0.003 µM is 41%.

In the case of `CCCc1c(COc2ccc(C(=O)CC(C)(C)CC(=O)O)cc2)ccc(C(C)=O)c1O` [Example 6, 4-[(4-Acetyl-3-hydroxy-2-propylphenyl)methoxy]-β,β-dimethyl-δ-oxobenzenepentanoic acid], the IC50 is 18.6 nM, the inhibition at 0.1 µM turned out to be 78%, the inhibition at 0.01 µM was found to be 41% and the inhibition at 0.003 µM came out at 16%.

Regarding `CCCc1c(COc2ccc(C(=O)CCCCc3nnn[nH]3)cc2)ccc(C(C)=O)c1O` [Example 11, 1-{4-[(4-Acetyl-3-hydroxy-2-propylphenyl)methoxy]phenyl}-5-(1H-tetrazol-5-yl)-1-pentanone], half-maximal inhibition (IC50) required 24.5 nM, the inhibition at 0.01 µM was 43% and the inhibition at 0.03 µM was 51%.

Consider `CCCc1c(COc2ccc(C(=O)CCC(=O)O)cc2)ccc(C(C)=O)c1O` [Example 1, 4-[(4-Acetyl-3-hydroxy-2-propylphenyl)methoxy]-γ-oxobenzenebutanoic acid], for which the IC50 was 33.1 nM, the inhibition at 0.3 µM came to 97% and the inhibition at 0.03 µM was found to be 48%.

Consider `CCc1c(COc2ccc(C(=O)CC(C)(C)CC(=O)O)cc2)ccc(C(C)=O)c1O` [Example 23, 4-[(4-Acetyl-2-ethyl-3-hydroxyphenyl)methoxy]-β,β-dimethyl-δ-oxobenzenepentanoic acid], for which the IC50 was 21.4 nM, the inhibition at 0.1 µM came out at 88%, the inhibition at 0.01 µM worked out at 25% and the inhibition at 0.03 µM came to 66%.

With `CCCc1c(COc2cccc(C(=O)CCCc3nnn[nH]3)c2)ccc(C(C)=O)c1O` [Example 18, 1-{3-[(4-Acetyl-3-hydroxy-2-propylphenyl)methoxy]phenyl}-4-(1H-tetrazol-5-yl)-1-butanone], 18.2 nM corresponded to half-maximal inhibition (IC50), the inhibition at 0.1 µM stood at 84%, the inhibition at 0.01 µM is 34% and the inhibition at 0.03 µM stood at 65%.

As to `CCCc1c(COc2ccc(C(=O)CCCCCc3nnn[nH]3)cc2)ccc(C(C)=O)c1O` [Example 19, 1-{4-[(4-Acetyl-3-hydroxy-2-propylphenyl)methoxy]phenyl}-6-(1H-tetrazol-5-yl)-1-hexanone], inhibition was half-maximal at 32.4 nM (IC50), the inhibition at 0.1 µM was 80% and the inhibition at 0.03 µM turned out to be 47%.

Consider `CCCc1c(COc2ccc(C(=O)CCCc3nnn[nH]3)cc2)ccc(C(C)=O)c1O` [Example 10, 1-{4-[(4-Acetyl-3-hydroxy-2-propylphenyl)methoxy]-phenyl}-4-(1H-tetrazol-5-yl)-1-butanone], for which the half-maximal inhibitory concentration (IC50) is 4.79 nM, the inhibition at 0.1 µM was 95%, the inhibition at 0.01 µM came to 57% and the inhibition at 0.3 µM came to 94%. The inhibition at 0.03 µM is 76% and the inhibition at 0.003 µM amounted to 46%.

The molecule `CCCc1c(COc2ccc3c(c2)CCC(CC(=O)O)C3=O)ccc(C(C)=O)c1O` (stereo not shown) [Example 28, 6-[(4-Acetyl-3-hydroxy-2-propylphenyl)methoxy]-1,2,3,4-tetrahydro-1-oxo-2-naphthaleneacetic acid] gave an IC50 of 10.2 nM.

For `CCCc1c(COc2ccc3c(c2)C(=O)C(CC(=O)O)CC3)ccc(C(C)=O)c1O` (stereo not shown) [Example 29, 7-[(4-Acetyl-3-hydroxy-2-propylphenyl)methoxy]-1,2,3,4-tetrahydro-1-oxo-2-naphthaleneacetic acid], the IC50 was 75.9 nM. This IC50 lies about 7.4-fold higher than the previous one.

Consider `CCCc1c(COc2ccc(C(=O)CCc3nnn[nH]3)cc2)ccc(C(C)=O)c1O` [Example 9, 1-{4-[(4-Acetyl-3-hydroxy-2-propylphenyl)methoxy]phenyl}-3-(1H-tetrazol-5-yl)-1-propanone], for which the IC50 was 26.3 nM, the inhibition at 0.1 µM is 85%, the inhibition at 0.01 µM came out at 25% and the inhibition at 0.3 µM was found to be 91%. Moreover, the inhibition at 0.03 µM was found to be 54%.

With `CCCc1c(COc2ccc(C(=O)CCCCC(=O)O)cc2)ccc(C(C)=O)c1O` [Example 5, 4-[(4-Acetyl-3-hydroxy-2-propylphenyl)methoxy]-ε-oxobenzenehexanoic acid], 15.8 nM corresponded to half-maximal inhibition (IC50), the inhibition at 0.1 µM was found to be 86%, the inhibition at 0.01 µM was found to be 40% and the inhibition at 0.03 µM came out at 63%.

Take `CCCc1c(COc2ccc(C(=O)CC3(CC(=O)O)CCCC3)cc2)ccc(C(C)=O)c1O` [Example 24, 1-(2-{4-[(4-Acetyl-3-hydroxy-2-propylphenyl)methoxy]phenyl}-2-oxoethyl)cyclopentaneacetic acid]: the IC50 is 13.5 nM, the inhibition at 0.1 µM amounted to 85%, the inhibition at 0.01 µM is 35% and the inhibition at 0.03 µM was found to be 74%.

In the case of `CCCc1c(COc2ccc(C(=O)Cc3nnn[nH]3)cc2)ccc(C(C)=O)c1O` [Example 8, 1-{4-[(4-acetyl-3-hydroxy-2-propylphenyl)methoxy]phenyl}-2-(1H-tetrazol-5-yl)ethanone], the IC50 is 21.9 nM, the inhibition at 0.01 µM was determined as 40% and the inhibition at 0.03 µM amounted to 54%.

For orientation: IC50 means the midpoint of a concentration-inhibition curve. A word on the inhibition: it is the relative decrease from the control value, in per cent.
